We go through 9 compounds from patent US9676782B2, “Substituted pyrazolo[1,5-a]pyrazines as negative allosteric modulators of metabotropic glutamate receptor 3” (Vanderbilt University, priority 2014, dated 2017).

The target of one assay is rat mGlu3 (Rattus norvegicus (Rat), UniProt P31422). As to the kind of experiment: mGlu3 Ca2+ flux assay. In kind it is cell-based. The settings on record: for remaining activity at 30 µM: amplitude of response at 30 μM test compound as % of maximal response to glutamate, read-out: rat mGlu3 Glu max (%). The method in brief: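 Cells expressing rat mGlu3 were grown overnight at 37° C. under 5% CO2, then loaded with dye. After dye removal they received 20 μL of assay buffer and sat 10 minutes at room temperature. Calcium flux was read on a Hamamatsu FDSS7000, and fluorescence was expressed as fold over basal and normalized to the maximal glutamate response.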
In general terms: A change in cytosolic calcium serves as a functional read-out for many receptors and channels.

Another assay addresses rat mGlu5 (Rattus norvegicus (Rat), UniProt P31424). As to the kind of experiment: mGlu5 Ca2+ flux assay. In kind it is cell-based. The conditions noted are these: for Fold selectivity (mGlu3 vs. mGlu5): ratio of rat mGlu5 EC50 or IC50 to rat mGlu3 IC50; for Emax at 30 µM: PAM, amplitude of response at 30 μM test compound as % of maximal response to glutamate, read-out: rat mGlu5 Glu max (%). The method in brief: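 Transfected cells grown overnight at 37° C/5% CO2, dye-loaded, then 5 min in assay buffer at RT before Ca2+ flux read on FDSS7000. Fluorescence as F/F0 fold over basal, normalized to maximal glutamate response; EC50 from unconstrained 4-parameter logistic fit, triplicates weighted evenly.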

Setting [1] is: NAM potency, decrease of glutamate EC80 response, >30,000 = no measurable activity, >10,000 = no plateau, read-out: rat mGlu3 IC50.
The mark [2] stands for this setting: read-out: rat mGlu5 EC50 or IC50.
The mark [3] stands for this setting: Table 2 compounds with X = NH, response at 30 μM compound as percentage of maximal glutamate response.

Like-named read-outs stand apart in the source and are kept apart here.

Sequence of rat mGlu5 (P31424 21-1203): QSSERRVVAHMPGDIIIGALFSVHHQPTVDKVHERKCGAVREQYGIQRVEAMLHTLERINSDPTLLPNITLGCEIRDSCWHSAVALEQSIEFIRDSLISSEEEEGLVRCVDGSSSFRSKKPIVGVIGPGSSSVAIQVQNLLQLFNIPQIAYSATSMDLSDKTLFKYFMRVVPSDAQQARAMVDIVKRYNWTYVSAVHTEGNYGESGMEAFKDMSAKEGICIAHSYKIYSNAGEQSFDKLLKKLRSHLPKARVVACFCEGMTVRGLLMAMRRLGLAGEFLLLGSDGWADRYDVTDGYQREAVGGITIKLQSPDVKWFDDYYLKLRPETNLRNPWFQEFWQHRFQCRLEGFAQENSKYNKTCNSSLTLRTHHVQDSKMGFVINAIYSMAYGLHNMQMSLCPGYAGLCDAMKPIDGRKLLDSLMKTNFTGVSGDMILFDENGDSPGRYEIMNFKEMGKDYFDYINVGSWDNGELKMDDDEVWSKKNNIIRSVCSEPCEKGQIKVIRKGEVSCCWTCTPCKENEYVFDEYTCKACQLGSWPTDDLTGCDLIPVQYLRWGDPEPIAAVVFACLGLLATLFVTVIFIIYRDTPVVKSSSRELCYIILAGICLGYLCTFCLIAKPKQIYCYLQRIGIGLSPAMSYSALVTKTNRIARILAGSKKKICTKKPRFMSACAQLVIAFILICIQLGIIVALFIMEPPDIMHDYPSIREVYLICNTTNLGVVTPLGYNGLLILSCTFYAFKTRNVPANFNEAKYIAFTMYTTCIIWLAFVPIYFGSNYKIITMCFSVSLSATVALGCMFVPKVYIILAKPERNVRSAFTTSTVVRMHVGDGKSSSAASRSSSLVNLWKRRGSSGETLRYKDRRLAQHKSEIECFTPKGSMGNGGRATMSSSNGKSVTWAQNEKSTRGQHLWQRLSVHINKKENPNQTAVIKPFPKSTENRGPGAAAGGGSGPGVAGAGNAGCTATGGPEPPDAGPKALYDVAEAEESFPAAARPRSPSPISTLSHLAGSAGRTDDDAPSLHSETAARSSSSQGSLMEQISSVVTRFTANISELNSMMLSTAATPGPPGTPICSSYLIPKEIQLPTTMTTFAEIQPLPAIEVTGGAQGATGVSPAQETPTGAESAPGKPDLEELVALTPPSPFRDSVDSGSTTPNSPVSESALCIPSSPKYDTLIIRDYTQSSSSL
Sequence of rat mGlu3 (P31422 23-879): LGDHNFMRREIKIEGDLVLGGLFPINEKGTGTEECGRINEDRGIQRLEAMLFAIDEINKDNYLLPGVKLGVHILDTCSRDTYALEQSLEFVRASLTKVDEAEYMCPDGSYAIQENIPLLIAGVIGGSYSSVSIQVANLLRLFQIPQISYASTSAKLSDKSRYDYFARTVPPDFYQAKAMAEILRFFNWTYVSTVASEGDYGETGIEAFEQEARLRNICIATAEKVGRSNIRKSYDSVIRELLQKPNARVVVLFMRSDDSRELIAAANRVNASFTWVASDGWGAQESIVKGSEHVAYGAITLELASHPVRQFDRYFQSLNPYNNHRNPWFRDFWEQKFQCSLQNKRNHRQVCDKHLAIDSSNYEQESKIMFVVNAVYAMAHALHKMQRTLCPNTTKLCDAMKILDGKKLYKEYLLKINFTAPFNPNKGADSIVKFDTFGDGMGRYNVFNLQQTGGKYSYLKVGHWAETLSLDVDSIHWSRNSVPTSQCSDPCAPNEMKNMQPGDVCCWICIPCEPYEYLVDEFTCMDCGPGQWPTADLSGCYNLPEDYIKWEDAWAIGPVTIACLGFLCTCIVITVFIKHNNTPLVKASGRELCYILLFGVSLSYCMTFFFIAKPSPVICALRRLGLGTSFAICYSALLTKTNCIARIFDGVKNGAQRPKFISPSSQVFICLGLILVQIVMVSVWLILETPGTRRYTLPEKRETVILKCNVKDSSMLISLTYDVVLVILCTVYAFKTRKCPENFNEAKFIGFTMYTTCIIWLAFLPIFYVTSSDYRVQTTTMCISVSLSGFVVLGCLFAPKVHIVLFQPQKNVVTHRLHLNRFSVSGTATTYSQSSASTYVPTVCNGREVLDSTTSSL

In the case of `COc1ccc(N(C)Cc2cc3n(n2)CCN(c2ccc(OC)cc2)C3=O)cc1` [Compound 114, 5-(4-methoxyphenyl)-2-(((4-methoxyphenyl)(methyl)amino)methyl)-6,7-dihydropyrazolo[1,5-a]pyrazin-4(5H)-one], the concentration for half-maximal inhibition (IC50) (usually the concentration needed to halve the response being measured) on rat mGlu3 (setting [1]) came to 1.37 µM. On rat mGlu3, the remaining activity at 30 µM came out at 1.7%. The “Fold selectivity (mGlu3 vs. mGlu5)” value on rat mGlu5 is above 21. In addition, the EC50 (as a rule, the concentration giving half of the maximal effect) at rat mGlu5 (setting [2]) was above 30 µM.
Regarding `COc1ccc(N(C)Cc2cc3n(n2)CCN(c2ccccc2OC)C3=O)cc1` [Compound 119, 5-(2-methoxyphenyl)-2-(((4-methoxyphenyl)(methyl)amino)methyl)-6,7-dihydropyrazolo[1,5-a]pyrazin-4(5H)-one], the IC50 at rat mGlu3 (setting [1]) is 3.28 µM. In addition, the remaining activity at 30 µM at rat mGlu3 amounted to 1.3%. In addition, at rat mGlu5, the “Fold selectivity (mGlu3 vs. mGlu5)” value is listed as above 9.1. Also, the EC50 at rat mGlu5 (setting [2]) is above 30 µM.
Take `Cc1ccc(NCc2cc3n(n2)[C@@H](C)CN(c2ccc(F)cc2)C3=O)cc1` [Compound 59, (S)-5-(4-fluorophenyl)-7-methyl-2-((p-tolylamino)methyl)-6,7-dihydropyrazolo[1,5-a]pyrazin-4(5H)-one]: the IC50 at rat mGlu3 (setting [1]) was 1.74 µM. The remaining activity at 30 µM on rat mGlu3 was 3.14%. For the same compound, on rat mGlu5, the Emax at 30 µM was determined as 48.9% and the “Fold selectivity (mGlu3 vs. mGlu5)” value is given as above 5.7. For the same compound, the EC50 on rat mGlu5 (setting [2]) is above 10 µM.
With `COc1cccc(NCc2cc3n(n2)[C@@H](C)CN(c2ccc(F)cc2)C3=O)c1` [Compound 53, (S)-5-(4-fluorophenyl)-2-(((3-methoxyphenyl)amino)methyl)-7-methyl-6,7-dihydropyrazolo[1,5-a]pyrazin-4(5H)-one], the IC50 on rat mGlu3 (setting [1]) was 10 µM. The remaining activity at 30 µM on rat mGlu3 amounted to 8.62%. The “Fold selectivity (mGlu3 vs. mGlu5)” value at rat mGlu5 was above 3.0. Further, the EC50 on rat mGlu5 (setting [2]) is above 30 µM.
For `COCc1ccc(N2CCn3nc(CN(C)c4ccc(OC)cc4)cc3C2=O)cc1` [Compound 120, 5-(4-(methoxymethyl)phenyl)-2-(((4-methoxyphenyl)(methyl)amino)methyl)-6,7-dihydropyrazolo[1,5-a]pyrazin-4(5H)-one], the remaining activity at 30 µM at rat mGlu3 amounted to 1.48%. Further, the IC50 at rat mGlu3 (read-out: rat mGlu3 IC50) worked out at 2.88 µM. The “Fold selectivity (mGlu3 vs. mGlu5)” value at rat mGlu5 is recorded as above 10. The EC50 on rat mGlu5 (setting [2]) was above 30 µM.
As for `O=C1c2cc(CNc3cccc(F)c3)nn2CCN1c1ccc(F)cc1` [drawing 31 X = NH], the IC50 at rat mGlu3 (Table 2 compounds with X = NH, read-out: mGlu3 IC50) came out at 1.04 µM. In addition, the “mGlu3 Glu max” value on rat mGlu3 (setting [3]) is 1%. The concentration giving a half-maximal response (EC50) at rat mGlu5 (Table 2 compounds with X = NH, read-out: mGlu5 EC50) is 2.21 µM. For the same compound, at rat mGlu5 (setting [3]), the “mGlu5 Glu max” value was found to be 99%.
Consider `O=C1c2cc(CNc3ccc(OC(F)F)cc3F)nn2CCN1c1ccc(F)cc1F` [Compound 141, 2-(((4-(difluoromethoxy)-2-fluorophenyl)amino)methyl)-5-(2,4-difluorophenyl)-6,7-dihydropyrazolo[1,5-a]pyrazin-4(5H)-one], for which the IC50 on rat mGlu3 (setting [1]) was determined as 0.706 µM. Moreover, the remaining activity at 30 µM on rat mGlu3 amounted to 1.87%. Also, the “Fold selectivity (mGlu3 vs. mGlu5)” value at rat mGlu5 is on record as above 42. Further, on rat mGlu5 (setting [2]), the concentration for a half-maximal effect (EC50) was above 30 µM.
Consider `COc1cccc(N2CCn3nc(CNc4ccc(OC(F)F)cc4F)cc3C2=O)c1` [Compound 142, 2-(((4-(difluoromethoxy)-2-fluorophenyl)amino)methyl)-5-(3-methoxyphenyl)-6,7-dihydropyrazolo[1,5-a]pyrazin-4(5H)-one], for which, at rat mGlu3 (setting [1]), the IC50 was determined as 0.863 µM. The remaining activity at 30 µM at rat mGlu3 stood at 1.5%. Also, at rat mGlu5, the “Fold selectivity (mGlu3 vs. mGlu5)” value is above 34. Moreover, the EC50 on rat mGlu5 (setting [2]) is above 30 µM.
With `C[C@H]1CN(c2ccc(F)cc2)C(=O)c2cc(CNc3c(F)cc(F)cc3F)nn21` [Compound 80, (S)-5-(4-fluorophenyl)-7-methyl-2-(((2,4,6-trifluorophenyl)amino)methyl)-6,7-dihydropyrazolo[1,5-a]pyrazin-4(5H)-one], on rat mGlu3 (setting [1]), the half-maximal inhibitory concentration (IC50) came to 4.32 µM. Also, the remaining activity at 30 µM at rat mGlu3 was -0.58%. At rat mGlu5, the Emax at 30 µM is 95.8% and the “Fold selectivity (mGlu3 vs. mGlu5)” value is listed as 1.79. On rat mGlu5 (setting [2]), the EC50 is 7.75 µM.
